{"source": "patent US20120059005A1", "about": "“COMBINATION OF (A) A PHOSPHOINOSITIDE 3-KINASE INHIBITOR AND (B) AN ANTIDIABETIC COMPOUND FOR USE IN THE TREATMENT OF PROLIFERATIVE DISEASES” (NOVARTIS AG, priority 2009, published 2012)", "key": {"[1]": {"test_system": "H520 non-small cell lung tumors", "assay": "H520 xenograft 20-day tumor growth inhibition assay", "format": "in vivo, nude mice", "settings": "for Mean Tumor Vol. Change / Regression / T/C: Day 20", "procedure": "EGFR-null H520 human non-small cell lung cancer (NSCLC) cells are treated with different doses of 2-Methyl-2-[4-(3-methyl-2-oxo-8-quinolin-3-yl-2, 3-dihydro-imidazo[4,5-c]quinolin-1-yl)-phenyl]-propionitrile monotosylate salt (also known as COMPOUND A) or 5-(2,6-di-morpholin-4-yl-pyrimidin-4-yl)-4-trifluoromethyl-pyridin-2-ylamine hydrochloride salt (also known as COMPOUND C), a single dose of metformin or both agents in combination, The H520 human NSCLC cells (NCl-H520, ATCC-HTB-182, available from American Type Culture Collection, Rockville, Md. US) are isolated from a sample of a lung mass taken from a patient with squamous cell carcinoma of the lung (Banks-Schlegel et at Cancer Res, 45(3): 1187-1197 (1985).\nH520 tumor cells are grown in RPMI 1640 medium containing 100 units/mL penicillin G sodium, 100 μg/ML streptomycin sulfate, and 25 µg/mL gentamicin. The medium is supplemented with 10% fetal bovine serum, 2 mM glutamine, and 1 mM sodium pyruvate, and buffered with 10 mM HEPES and 0.075% sodium bicarbonate. The cells are cultured in tissue culture flasks in a humidified incubator at 37° C., in an atmosphere of 5% CO2 and 95% air. The cells are harvested for injection into 8-week old female nu/nu (nude) mice (Harlan Laboratories, Indianapolis, Ind.) by detaching the monolayers with 1× trypsin and resuspending at 5×10^7cells/mL in phosphate-buffered saline containing 50% Matrigel.\n(§1) 0.2 mL of H520 tumor cell suspension (1×10^7 cells) is injected subcutaneously in the right flank of 8-week old female nu/nu (nude) mice (Harlan Laboratories, Indianapolis, Ind.) having a body weight (BW) range of 18.1-26.9 g on Day 1 of the study. Tumors are monitored twice weekly and then daily as their mean volume approaches 120-180 mm^3. […] Tumor weight can be estimated with the assumption that 1 mg is equivalent to 1 mrn^3 of tumor volume.\n(§2) The 11 groups of nude mice are treated as follows. One group of eight mice serves as Controls (C or Control) for all analyses and is administered intraperitoneally (i.p.) 50 mM sodium acetate at pH 4 (Vehicle 1) and then administered by oral gavage (p.o.) a composition comprising 10% N-methylpyrrolidone: 90% polyethylene glycol 300 (PEG 300) (Vehicle 2). […] Metformin is dissolved in 50 mM sodium acetate at pH 4 for dosing,\n(§3) Compound C is stored at −20° C. protected from light. Stock solutions (10×) in 100% N-methylpyrrolidone (NMP) are prepared every five days, aliquotted, and stored in the dark at room temperature. On each treatment day, stock solution aliquots are diluted with polyethylene glycol (PEG300) to provide the formulated drug (Compound A or Compound C) in 10% NMP: 90% PEG300, Dosing solutions are protected from light and the formulated drug is administered within 1 hour after preparation.\n(§4) For combination therapies, Compound A or Compound C is administered by oral gavage (p.o.) within 30 minutes after the intraperitoneal (i.p.) administration of metformin, except on Day 20 when Compound A or Compound C is given immediately after metformin.\n(§5) Paclitaxel (Natural Pharmaceuticals, Inc., Beverly, Mass., USA) is administered by bolus tail-vein injections (i.v.) once daily on alternate days for five doses. Paclitaxel is dissolved in 50% ethanol and 50% Cremophor® EL to prepare a 10× stock solution stored at room temperature. On each day of dosing, an aliquot of the pad itaxel stock solution is diluted with 5% dextrose in water to yield a dosing solution containing 5% ethanol and 5% Cremophor® EL.\nStatistical and graphical analyses was conducted by determining the difference in tumor volume between Day 1 (the start of dosing) and the endpoint day for each animal that remained on study on Day 20. Antitumor activity is expressed as % T/C (comparing the mean tumor volume change between the endpoint day and Day 1 for the treatment group to the Control). A T/C≦40% is classified as potential therapeutically active."}, "[2]": {"procedure": "as §1, §2, §3, §4, §5"}, "[3]": {"settings": "Compound A 41.1 mg/kg p.o., 1x daily"}, "[4]": {"settings": "Compound A 68.5 mg/kg p.o., 1x daily"}, "[5]": {"settings": "Compound C 32.7 mg/kg p.o., 1x daily"}, "[6]": {"settings": "Compound C 54.4 mg/kg p.o., 1x daily until day 7 (stopped due to toxicity)"}, "[7]": {"settings": "Metformin 192.3 mg/kg i.p., 1x daily"}, "[8]": {"settings": "Paclitaxel 30 mg/kg i.v., 1x on alternate days for 5 doses"}}, "note": "Where two headings read alike, the source gives them in different places.", "data": [{"compound": "Cn1c(=O)n(-c2ccc(C(C)(C)C#N)cc2)c2c3cc(-c4cnc5ccccc5c4)ccc3ncc21", "note": "[Compound A, 2-Methyl-2-[4-(3-methyl-2-oxo-8-quinolin-3-yl-2,3-dihydro-imidazo[4,5-c]quinolin-1-yl)-phenyl]-propionitrile]", "values": [{"measurement": "Mean Tumor Vol. Change", "setting": "[1]; [3]", "value": 598, "unit": "mm^3"}, {"measurement": "Regression", "setting": "[1]; [3]", "value": "None"}, {"measurement": "T/C", "setting": "[1]; [3]", "value": "60% (ns^†)"}, {"measurement": "Mean Tumor Vol. Change", "setting": "[1]; [4]", "value": 466, "unit": "mm^3"}, {"measurement": "Regression", "setting": "[1]; [4]", "value": "None"}, {"measurement": "T/C", "setting": "[1]; [4]", "value": "47% (ns^†)"}, {"measurement": "Dead/Total", "setting": "[2]; female, nu/nu (nude), mouse, in vivo, po, 41.1 mg/kg", "value": "0/8"}, {"measurement": "Dead/Total", "setting": "[2]; female, nu/nu (nude), mouse, in vivo, po, 68.5 mg/kg", "value": "1/8"}, {"measurement": "Mean Body Weight Change", "setting": "[2]; mouse, in vivo, po, 68.5 mg/kg", "value": "−1.3%, Day 7"}]}, {"compound": "Nc1cc(C(F)(F)F)c(-c2cc(N3CCOCC3)nc(N3CCOCC3)n2)cn1", "note": "[Compound C, 5-(2,6-di-morpholin-4-yl-pyrimidin-4-yl)-4-trifluoromethyl-pyridin-2-ylamine]", "values": [{"measurement": "Mean Tumor Vol. Change", "setting": "[1]; [5]", "value": 542, "unit": "mm^3"}, {"measurement": "Regression", "setting": "[1]; [5]", "value": "None"}, {"measurement": "T/C", "setting": "[1]; [5]", "value": "54% (ns^†)"}, {"measurement": "Mean Tumor Vol. Change", "setting": "[1]; [6]", "value": 475, "unit": "mm^3"}, {"measurement": "Regression", "setting": "[1]; [6]", "value": "None"}, {"measurement": "T/C", "setting": "[1]; Compound C 54.4 mg/kg p.o., 1x daily until day 7 (stopped due to toxicity), not evaluable (ne)", "value": "48% (ne)"}]}, {"compound": "CN(C)C(=N)N=C(N)N", "note": "[Metformin, dimethyldiguanide, reference compound]", "values": [{"measurement": "Mean Tumor Vol. Change", "setting": "[1]; [7]", "value": 1003, "unit": "mm^3"}, {"measurement": "Regression", "setting": "[1]; [7]", "value": "None"}, {"measurement": "T/C", "setting": "[1]; [7]", "value": "101% (ns^†)"}, {"measurement": "modulation of tumor growth in the 20-day tumor growth inhibition assay", "setting": "[1]; metformin monotherapy at 192.3 mg/kg", "value": "did not appear to modulate tumor growth"}, {"measurement": "Dead/Total", "setting": "[2]; [7]", "value": "0/8"}]}, {"compound": "CC(=O)O[C@H]1C(=O)[C@@]2(C)[C@H]([C@H](OC(=O)c3ccccc3)[C@]3(O)C[C@H](OC(=O)[C@H](O)[C@@H](NC(=O)c4ccccc4)c4ccccc4)C(C)=C1C3(C)C)[C@]1(OC(C)=O)CO[C@@H]1C[C@@H]2O", "note": "[Paclitaxel, reference compound]", "values": [{"measurement": "Mean Tumor Vol. Change", "setting": "[1]; [8]", "value": 53, "unit": "mm^3"}, {"measurement": "Regression", "setting": "[1]; [8]", "value": "None"}, {"measurement": "T/C", "setting": "[1]; [8]", "value": 5, "unit": "%"}, {"measurement": "T/C", "setting": "[1]; Paclitaxel 30 mg/kg i.v., 1x on alternate days for 5 doses, listed as paclitaxel", "value": 5, "unit": "%"}, {"measurement": "Dead/Total", "setting": "[2]; [8]", "value": "0/8"}]}]}
